The values that follow come from patent US20230104311A1, “NOVEL 6-SUBSTITUTED 7-DEAZAPURINES AND CORRESPONDING NUCLEOSIDES AS MEDICAMENTS” (KATHOLIEKE UNIVERSITEIT LEUVEN, priority 2020, published 2023).

Where “and” joins values, the source holds several entries; their conditions need not be identical. Equal values may be shown once. Entries after “also recorded” stand apart in the source; their conditions may differ. Read-outs that look alike come from different tables or passages of the source.

In one data set the test system is human norovirus (HuNoV). The data set is described as follows: Inhibition of in vitro replication of genogroup 1 NoV in HG23 NoV replicon cells (qRT-PCR of intracellular RNA). Conditions: for inhibitory activity against human norovirus (in words): HuNoV assay. In kind it is cell-based.
The test system of a further data set is murine norovirus (MNV). The settings on record: read-out: EC50 murine norovirus (MNV) polymerase; cited from earlier work.
The next data set concerns HuNoV. The settings on record: human B cell BJAB cell line; read-out: EC50 HuNoV replication; cited from earlier work.
Data set [1] is described as follows: Cytotoxicity (CC50) determined in parallel in uninfected cells (β-actin toxicity). The settings on record: human.
Data set [2] relates to HCV. Conditions: read-out: EC50 HCV in cell cultures; cited from earlier work.
Data set [3] concerns HCV. The settings on record: anti-HCV in vitro; cited from earlier work.
A further data set concerns poliovirus (PV). Conditions: read-out: IC50 poliovirus (PV) replication; cited from earlier work.
For a further data set, the system named is dengue virus (DENV2). The settings on record: read-out: IC50 dengue virus (DENV2) replication; cited from earlier work.
The subject of data set [4] is uninfected cells. The data set is described as follows: Cytotoxicity (CC50) determined in parallel in uninfected cells (β-actin toxicity). Conditions: HuNoV assay.
The subject of data set [5] is Influenza A virus strain California/07/2009. The data set is described as follows: Inhibition of in vitro replication of Influenza A virus. In kind it is cell-based. Conditions: for EC50: Influenza A virus strain California/07/2009.
For data set [6], the system named is MERS Coronavirus strain EMC. Kind of data set: microbe, parasite or virus in culture. Type of data set: cell-based.
A short description of a further data set: in vitro. The settings on record: human.
Data set [7] relates to uninfected cells.
A further data set deals with norovirus. Conditions: read-out: EC50 norovirus replication; cited from earlier work.
Setting [8] is: Norovirus, HG23, HuNoV, HG23 NoV replicon cells, read-out: EC50 (effective concentration to inhibit the replication of the virus by 50%).
[9] abbreviates: Norovirus, HuNoV, HG23 NoV replicon cells, read-out: EC90 (effective concentration to inhibit the replication of the virus by 90%).
[10] abbreviates: Norovirus, HG23, read-out: EC50 (effective concentration to inhibit the replication of the virus by 50%), HuNoV, HG23 NoV replicon cells.
[11] abbreviates: HuNoV, HG23 NoV replicon cells, read-out: EC50 (effective concentration to inhibit the replication of the virus by 50%).
[12] abbreviates: HuNoV, HG23 NoV replicon cells, read-out: EC90 (effective concentration to inhibit the replication of the virus by 90%).

Take `C[C@@]1(O)[C@H](O)[C@@H](CO)O[C@H]1n1ccc(N)nc1=O` [2’Cmethyl Cytidine, 2′-C-Methyl-cytidine, reference compound]: the EC50 was 2.63 µM in the data set with human norovirus (HuNoV) (setting [8]), 2 µM in the data set on murine norovirus (MNV) and 0.3 µM with HuNoV. Moreover, the EC90 with human norovirus (HuNoV) (setting [9]) turned out to be 13.8 µM. Moreover, the CC50 in [1] (uninfected cells) was > 25 µM.

In the case of `C[C@@]1(O)[C@H](O)[C@@H](CO)O[C@H]1c1ccc2c(N)ncnn12` [2′-C-methyl-4-aza-7,9-dideazaadenosine], in the data set on HCV [2], the EC50 is 1.98 µM.

For `C[C@@]1(O)[C@H](O)[C@@H](CO)O[C@H]1c1cc(C(N)=O)c2c(N)ncnn12` [7-carboamido analogue 2], in the data set with HCV [3], the “improvement in potency relative to the parent compound 1” value was 40 fold.

`Cc1ncnc2c1ccn2[C@@H]1O[C@H](CO)[C@@H](O)[C@H]1O` [Compound 3]: the figures for the IC50 in the data set with poliovirus (PV) and in the data set with dengue virus (DENV2) were 0.011 µM and 0.039 µM, respectively.

Consider `Cc1ccc(-c2ncnc3c2ccn3[C@@H]2O[C@H](CO)[C@@H](O)[C@H]2O)cc1` [Compound 11a, 6-(4-Methylphenyl)-9-β-D-ribofuranosyl-7-deazapurine], for which the EC90 in the data set with human norovirus (HuNoV) (setting [9]) is > 100 µM. Further, the CC50 in data set [1] (uninfected cells) was > 100 µM.

For `Cc1ncnc2c1ccn2[C@@H]1O[C@H](CO)[C@@H](O)[C@H]1O` [Compound 11b, 6-Methyl-9-β-D-ribofuranosyl-7-deazapurine], in the data set on human norovirus (HuNoV), the “inhibitory activity against human norovirus (in words)” value is reported as “good activity”. Besides, the EC50 in the data set with human norovirus (HuNoV) (setting [10]) was found to be 0.012 µM. Besides, the EC90 in the data set on human norovirus (HuNoV) (setting [9]) stood at 0.068 µM. In [1] (uninfected cells), the CC50 is 0.53 µM.

On to `CC(C)c1ncnc2c1ccn2[C@@H]1O[C@H](CO)[C@@H](O)[C@H]1O` [Compound 11c, 6-Isopropyl-9-β-D-ribofuranosyl-7-deazapurine], for which the “inhibitory activity against human norovirus (in words)” value in the data set with human norovirus (HuNoV) is on record as “potent activity”. Besides, in the data set on human norovirus (HuNoV) (setting [10]), the EC50 was 0.024 µM. The EC90 in the data set with human norovirus (HuNoV) (setting [9]) was 2.69 µM. Also, the CC50 in data set [1] (uninfected cells) was > 100 µM. For the same compound, the “cytotoxicity (in words)” value in the data set with uninfected cells [4] is given as “did not display significant cytotoxicity; also recorded: without significant cytotoxicity”.

For the compound `CCc1ncnc2c1ccn2[C@@H]1O[C@H](CO)[C@@H](O)[C@H]1O` [Compound 11d, 6-Ethyl-9-β-D-ribofuranosyl-7-deazapurine], the EC50 in the data set with human norovirus (HuNoV) (setting [10]) worked out at 0.023 µM; in data set [5], 0.42 µM; in data set [6] (Middle East respiratory syndrome-related coronavirus) it was 9.2 µM. For the same compound, the EC90 in the data set on human norovirus (HuNoV) (setting [9]) was found to be 0.495 µM. The “inhibitory activity against Influenza A virus (in words)” value in data set [5] is on record as “moderate inhibitory activity”. Moreover, the “inhibitory activity against MERS Coronavirus (in words)” value in data set [6] is on record as “moderate inhibitory activity”. For the same compound, the results for the CC50 (in “in vitro”; in [1]) were > 100 µM and 10.2 µM, respectively. Further, in the data set with uninfected cells [4], the “cytotoxicity (in words)” value is reported as “did not display significant cytotoxicity”.

As for `CCCc1ncnc2c1ccn2[C@@H]1O[C@H](CO)[C@@H](O)[C@H]1O` [Compound 11e, 6-Propyl-9-β-D-ribofuranosyl-7-deazapurine], the “inhibitory activity against human norovirus (in words)” value in the data set on human norovirus (HuNoV) is “potent activity”. Also, the EC50 with human norovirus (HuNoV) (setting [10]) was found to be 0.016 µM. Further, the EC90 with human norovirus (HuNoV) (setting [9]) worked out at 19 µM. Further, in data set [1] (uninfected cells), the CC50 is > 100 µM. The “cytotoxicity (in words)” value in the data set with uninfected cells [4] is reported as “did not display significant cytotoxicity; also recorded: without significant cytotoxicity”.

In the case of `CCCCCc1ncnc2c1ccn2[C@@H]1O[C@H](CO)[C@@H](O)[C@H]1O` [Compound 11f, 6-Pentyl-9-β-D-ribofuranosyl-7-deazapurine], in the data set with human norovirus (HuNoV) (setting [10]), the EC50 stood at 0.084 µM. The EC90 in the data set with human norovirus (HuNoV) (Norovirus, HG23, read-out: EC90 (effective concentration to inhibit the replication of the virus by 90%)) is > 100 µM. The CC50 in data set [1] (uninfected cells) is > 100 µM.

Take `CCCCCCc1ncnc2c1ccn2[C@@H]1O[C@H](CO)[C@@H](O)[C@H]1O` [Compound 11g, 6-Hexyl-9-β-D-ribofuranosyl-7-deazapurine]: the EC50 in the data set on human norovirus (HuNoV) (setting [8]) came out at 0.13 µM. The EC90 in the data set on human norovirus (HuNoV) (setting [9]) came to 57.6 µM. The CC50 in data set [1] (uninfected cells) was 62.3 µM.

Consider `CC(C)Cc1ncnc2c1ccn2[C@@H]1O[C@H](CO)[C@@H](O)[C@H]1O` [Compound 11i, 6-Isobutyl-9-β-D-ribofuranosyl-7-deazapurine], for which, in the data set on human norovirus (HuNoV) (setting [8]), the EC50 was 0.002 µM. The EC90 in the data set with human norovirus (HuNoV) (setting [9]) is > 100 µM. Further, the CC50 in data set [1] (uninfected cells) was > 100 µM.

Take `OC[C@H]1O[C@@H](n2ccc3c(C4CC4)ncnc32)[C@H](O)[C@@H]1O` [Compound 11j, 6-Cycloproyl-9-β-D-ribofuranosyl-7-deazapurine]: in the data set with human norovirus (HuNoV) (setting [11]), the EC50 was 0.205 µM. Further, the EC90 with human norovirus (HuNoV) (setting [12]) is > 100 µM. For the same compound, in the data set with uninfected cells [7], the CC50 is > 100 µM.

Regarding `OC[C@H]1O[C@@H](n2ccc3c(C4CCCC4)ncnc32)[C@H](O)[C@@H]1O` [Compound 11k, 6-Cyclopentyl-9-β-D-ribofuranosyl-7-deazapurine], the EC50 with human norovirus (HuNoV) (setting [8]) was > 100 µM. In addition, in the data set on human norovirus (HuNoV) (setting [9]), the EC90 is > 100 µM. The CC50 in [1] (uninfected cells) was > 100 µM.

With `OC[C@H]1O[C@@H](n2ccc3c(C4CCCCC4)ncnc32)[C@H](O)[C@@H]1O` [Compound 11l, 6-Cyclohexyl-9-β-D-ribofuranosyl-7-deazapurine], the “inhibitory activity against human norovirus (in words)” value in the data set on human norovirus (HuNoV) is “potent activity”. The EC50 with human norovirus (HuNoV) (setting [11]) and in the data set on human norovirus (HuNoV) (setting [10]) was 0.18 µM in each case. The EC90 with human norovirus (HuNoV) (setting [9]) turned out to be 7.24 µM. The same compound displayed a CC50 in [1] (uninfected cells) of 42.4 µM. For the same compound, the “cytotoxicity (in words)” value with uninfected cells [4] is “did not display significant cytotoxicity; also recorded: without significant cytotoxicity”.

Consider `CC(C)c1ccc(-c2ncnc3c2ccn3[C@@H]2O[C@H](CO)[C@@H](O)[C@H]2O)cc1` [Compound 11m, 6-(4-isoproylphenyl)-9-β-D-ribofuranosyl-7-deazapurine], for which the EC50 in the data set on human norovirus (HuNoV) (setting [11]) is 0.002 µM and < 0.001 µM. Also, in the data set with human norovirus (HuNoV) (setting [12]), the EC90 is 55 µM. In the data set with uninfected cells [7], the CC50 was > 100 µM.

Turning to `COc1ccc(-c2ncnc3c2ccn3[C@@H]2O[C@H](CO)[C@@H](O)[C@H]2O)cc1` [Compound 11n, 6-(4-Methoxylphenyl)-9-β-D-ribofuranosyl-7-desazapurine], the EC50 in the data set on human norovirus (HuNoV) (setting [8]) was determined as 0.094 µM. Further, the EC90 with human norovirus (HuNoV) (setting [9]) was > 100 µM. For the same compound, in data set [1] (uninfected cells), the CC50 is > 100 µM.

In the case of `OC[C@H]1O[C@@H](n2ccc3c(-c4ccccc4)ncnc32)[C@H](O)[C@@H]1O` [Compound 11o, 6-Phenyl-9-β-D-ribofuranosyl-7-deazapurine], the EC50 in the data set with human norovirus (HuNoV) (setting [8]) turned out to be 0.211 µM. Further, the EC90 with human norovirus (HuNoV) (setting [9]) came to 61.9 µM. Further, the CC50 in data set [1] (uninfected cells) was > 100 µM.

With `CN(C)c1ccc(-c2ncnc3c2ccn3[C@@H]2O[C@H](CO)[C@@H](O)[C@H]2O)cc1` [Compound 11p, 6-(4-(Dimethylamino)phenyl)-9-β-D-ribofuranosyl-7-deazapurine], the EC50 in the data set on human norovirus (HuNoV) (setting [8]) came out at 92.4 µM. Also, the EC90 in the data set with human norovirus (HuNoV) (setting [9]) was > 100 µM. For the same compound, the CC50 in [1] (uninfected cells) was > 100 µM.

As to `CCc1ccc(-c2ncnc3c2ccn3[C@@H]2O[C@H](CO)[C@@H](O)[C@H]2O)cc1` [Compound 11q, 6-(4-Ethylphenyl)-9-β-D-ribofuranosyl-7-deazapurine], in the data set with human norovirus (HuNoV) (setting [8]), the EC50 stood at 57.8 µM. Moreover, the EC90 in the data set with human norovirus (HuNoV) (setting [9]) was > 100 µM. Also, in data set [1] (uninfected cells), the CC50 is > 100 µM.

`NC(=O)c1ncn([C@@H]2O[C@H](CO)[C@@H](O)[C@H]2O)n1` [Ribavirin, reference compound]: the results for the EC50 (in data set [5]; in the data set on norovirus) were 3.6 µM and 43 µM, respectively. The CC50 in the data set “in vitro” is > 1000 µM.
